Measurements taken from ChEMBL document CHEMBL1135957, “Novel 1',1'-chain substituted Delta(8)-tetrahydrocannabinols” (Bioorg Med Chem Lett, 2002).
pKi: −log10 of the molar value.

Key:
[1] = biological target: Cannabinoid receptor 2 (Mus musculus, UniProt P47936); assay: Binding affinity for Cannabinoid receptor 2 by the ability to displace radiolabeled CP-55940 from mouse spleen synaptosomes; format: subcellular
[2] = biological target: Cannabinoid receptor 1 (Rattus norvegicus, UniProt P20272); assay: Binding affinity for Cannabinoid receptor 1 by the ability to displace radiolabeled CP-55940 from purified rat forebrain synaptosomes; format: subcellular, Brain
Chain of Cannabinoid receptor 1 (P20272 whole entry): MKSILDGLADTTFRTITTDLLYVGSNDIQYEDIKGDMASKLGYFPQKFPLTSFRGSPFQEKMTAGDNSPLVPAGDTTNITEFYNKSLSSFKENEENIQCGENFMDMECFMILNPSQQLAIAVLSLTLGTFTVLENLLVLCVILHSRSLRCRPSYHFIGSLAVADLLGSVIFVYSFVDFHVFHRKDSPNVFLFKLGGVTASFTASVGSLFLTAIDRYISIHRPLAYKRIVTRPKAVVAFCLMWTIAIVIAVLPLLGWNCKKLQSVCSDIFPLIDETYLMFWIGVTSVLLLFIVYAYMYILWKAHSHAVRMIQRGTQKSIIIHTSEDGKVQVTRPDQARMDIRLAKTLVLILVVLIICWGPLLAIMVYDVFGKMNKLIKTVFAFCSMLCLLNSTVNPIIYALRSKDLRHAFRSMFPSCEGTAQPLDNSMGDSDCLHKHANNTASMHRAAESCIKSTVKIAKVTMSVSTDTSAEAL

Chain of Cannabinoid receptor 2 (P47936 whole entry): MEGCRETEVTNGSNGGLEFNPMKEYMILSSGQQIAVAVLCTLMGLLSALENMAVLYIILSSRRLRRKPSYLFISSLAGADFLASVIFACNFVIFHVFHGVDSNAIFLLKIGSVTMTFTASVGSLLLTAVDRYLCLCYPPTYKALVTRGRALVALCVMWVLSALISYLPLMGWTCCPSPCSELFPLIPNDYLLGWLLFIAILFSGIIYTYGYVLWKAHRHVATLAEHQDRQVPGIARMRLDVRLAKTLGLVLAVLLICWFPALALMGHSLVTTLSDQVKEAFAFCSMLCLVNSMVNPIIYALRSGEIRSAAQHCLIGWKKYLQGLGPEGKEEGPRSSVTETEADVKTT

Compound	pKi [1]	pKi [2]
CCCCCCC1(c2cc(O)c3c(c2)OC(C)(C)[C@@H]2CC=C(C)C[C@@H]32)CC1(Br)Br (some centres not stated)	9.00	9.15
C=C(C)C1CCC(C)=CC1c1c(O)cc(C2(CCCCCC)CC2)cc1O (configuration not stated)	7.00	7.23
CCCCCCC1(c2cc(O)c3c(c2)OC(C)(C)[C@@H]2CC=C(C)C[C@@H]32)CC1(Cl)Cl (some centres not stated)	9.54	8.90
C=C(C)C1CCC(C)=CC1c1c(O)cc(C2(CCCCCC)CC2(Br)Br)cc1O (configuration not stated)	7.20	6.72
C=C(C)C1CCC(C)=CC1c1c(O)cc(C2(CCCCCC)CC2(Cl)Cl)cc1O (configuration not stated)	7.48	6.18
CCCCCCC1(c2cc(O)c3c(c2)OC(C)(C)[C@@H]2CC=C(C)C[C@@H]32)CC1	9.07	9.36
C=C(C)C1CCC(C)=CC1c1c(O)cc(C2(CCCCCC)SCCS2)cc1O (configuration not stated)	7.30	6.87
CCCCCCC(C)(C)c1cc(O)c2c(c1)OC(C)(C)[C@@H]1CC=C(C)C[C@@H]21	9.31	9.08
C=C(C)[C@@H]1CCC(C)=C[C@H]1c1c(O)cc(CCCCC)cc1O [CANNABIDIOL]	6.64	
